Results on 2 compounds are retold here after US20240124410A1, “SMALL MOLECULES AND THEIR USE AS MALT1 INHIBITORS” (University of Pittsburgh - Of the Commonwealth System of …, priority 2021, published 2024).

Molecules are shown by their SMILES.

One experiment has as its target T1, HRH2 (Homo sapiens, UniProt P25021).
T1 construct: Eurofins
Kind of experiment: Eurofins SAFETYscan 78-target panel, off-target effects, HRH2. Type of experiment: biochemical. Conditions: antagonist / blocker / inhibitor mode. On the procedure:
(§1) FIG. 9. Table summarizing the Eurofins analysis of potential off-target effects of M1i-124. […] values above 10 μM are generally considered to be acceptable. FIG. 10. Representative hematoxylin and eosin (H&E) staining of organ sections (lung, heart, kidney, liver and adrenal) from control and M1i-124 treated mice described in FIG. 6.
(§2) Studies were performed using the services of Touchstone Biosciences and Eurofins Pharma Discovery Services. […] All blood samples (30-50 ul per sample) were taken via tail vein at 5, 15, and 30 minutes, and 1, 2, 4, 6, 8, and 24 hours after dosing. Blood samples are collected in Greiner MiniCollect K2 EDTA tubes, placed on ice, and within 30 minutes, centrifuged at 15,000 g for 5 minutes to obtain plasma samples. All plasma samples are stored at −70° C. until analysis. Plasma samples were prepared for analysis by LC-MS/MS, and key PK parameters, including terminal half-life (t 112), initial plasma concentration (C0), area under the plasma concentration vs. time curve (AUC), volume of distribution at steady-state (Vss), total plasma clearance (CLp), and mean residence time (MRT), were measured.
(§3) Assay details are available through Eurofins.

Another experiment deals with T2, CHRM2 (Homo sapiens, UniProt P08172).
T2 construct: Eurofins
T2 sequence (P08172 1-466): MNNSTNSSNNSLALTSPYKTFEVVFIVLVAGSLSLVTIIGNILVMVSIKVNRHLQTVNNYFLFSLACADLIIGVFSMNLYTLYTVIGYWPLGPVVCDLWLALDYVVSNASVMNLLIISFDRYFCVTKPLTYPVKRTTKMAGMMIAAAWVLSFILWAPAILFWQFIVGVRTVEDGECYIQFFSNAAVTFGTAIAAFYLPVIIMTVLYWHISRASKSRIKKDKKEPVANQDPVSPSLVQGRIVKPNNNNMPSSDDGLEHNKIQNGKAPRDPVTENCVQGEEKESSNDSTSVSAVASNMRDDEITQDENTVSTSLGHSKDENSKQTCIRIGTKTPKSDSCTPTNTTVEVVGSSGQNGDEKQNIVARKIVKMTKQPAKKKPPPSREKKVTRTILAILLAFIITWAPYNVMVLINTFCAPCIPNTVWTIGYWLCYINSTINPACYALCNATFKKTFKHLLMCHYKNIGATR
Briefly: Eurofins SAFETYscan 78-target panel, off-target effects, CHRM2. The experiment is classed as biochemical. Conditions: antagonist / blocker / inhibitor mode. On the procedure:
as §1, §2, §3

For experiment [1], the system named is PMA/iono-induced transcription of interleukin 2 (IL-2). Kind of experiment: IL-2 transcription in Jurkat T cells (quantitative RT-PCR). The experiment is classed as cell-based. To be noted: compound at 1 μM. The method, then:
(§4) The DLBCL cell lines, OCI-Ly1, OCI-Ly3, and OCI-Ly7, were provided by Dr. Mark Minden (University Health Network, Toronto, Ontario, Canada). TMD8 cells were provided by Dr. Louis Staudt (NCI, NIH). OCI-Ly1 and OCI-Ly7 cells were cultured in Iscove's Modified Dulbecco's Medium (IMDM) supplemented with 10% FBS. OCI-Ly3 cells were cultured in IMDM supplemented with 20% FBS. TMD8 and Jurkat T cells were cultured in RPMI1640 medium with 10% FBS. HEK293T cells were cultured in DMEM medium with 10% FBS. All media were supplemented with 100 U/ml penicillin streptomycin. Stimulation of Jurkat cells was conducted by adding 5 ng/ml of phorbol 12-myristatel3 acetate (PMA)(Sigma-Aldrich) and 1μM ionomycin (Calbiochem), or by adding 5-10 μL/mL of ImmunoCult Human CD3/CD28 ([…] Technologies).
Total RNA extraction was performed using RNeasy Plus Mini Kit (Qiagen Cat #74136). 1 ng RNA was transcribed into cDNA using High-Capacity cDNA Reverse Transcription Kit (Applied Biosystems Cat #4368814) according to manufacturer's instructions. RT-PCR reactions were performed using TaqMan gene expression probe sets.

For another experiment, the system named is OCI-Ly3 ABC-DLBCL cells. Kind of experiment: Cell proliferation (cell count, trypan blue exclusion), OCI-Ly3. Type of experiment: cell-based. Conditions: OCI-Ly3, single dose of 1 μM, 12 days. An excerpt: (§5) Cell number was counted using the trypan blue dye exclusion method with Vi-CELL cell viability analyzer (Beckman Coulter) at days 7, 10, and 12 of treatment with compounds. Cell proliferation was specifically evaluated using the CellTrace Violet reagent (ThermoFisher Cat #C34571) which undergoes dilution with each round of cell division. 1.5×10^6 cells were washed twice in PBS and resuspended in 2 mls of PBS.

For experiment [2], the system named is T cell receptor (TCR)-induced phosphorylation of ERK. Kind of experiment: Phosphorylation of ERK in Jurkat T cells (Western blot). Type of experiment: cell-based. To be noted: 20 hours pretreatment, anti-CD3/CD28 for 0-20 minutes. The method, then: as §4
The test system of a further experiment is TMD8 ABC-DLBCL cells. Briefly: Cell proliferation (cell count, trypan blue exclusion), TMD8. To be noted: TMD8, single dose of 1 μM, 12 days. The experiment is classed as cell-based.
Excerpt: as §5

In experiment [3] the test system is IL-6 and IL-10 secretion in TMD8 cells. Briefly: IL-6 and IL-10 secretion by TMD8 cells (ELISA). The experiment is classed as cell-based, human. The method, then: Expression of cytokines from cell culture supernatants was measured 24h after treatment with 0, 0.01, 0.03, 0.1, 0.3, 1, or 3 uM of compounds using the following ELISA kits according to the manufacturer's instructions: Human IL-2 ELISA (BioLegend Cat #431804), Human IL-6 ELISA (BioLegend Cat #430504), and Human IL-10 ELISA (BioLegend Cat #430604).
In general terms: ELISA stands for enzyme-linked immunosorbent assay.

T1 sequence (P25021 whole entry): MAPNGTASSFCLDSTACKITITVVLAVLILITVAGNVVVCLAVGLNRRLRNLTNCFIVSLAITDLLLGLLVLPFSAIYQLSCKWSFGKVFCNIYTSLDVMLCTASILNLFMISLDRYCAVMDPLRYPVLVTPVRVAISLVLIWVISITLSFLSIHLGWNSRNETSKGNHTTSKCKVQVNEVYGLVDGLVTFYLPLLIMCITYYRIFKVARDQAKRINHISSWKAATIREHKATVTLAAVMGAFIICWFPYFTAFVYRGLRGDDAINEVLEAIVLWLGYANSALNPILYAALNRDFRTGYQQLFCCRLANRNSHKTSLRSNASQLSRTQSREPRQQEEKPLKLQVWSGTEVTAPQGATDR

As a reminder, the IC50 is the concentration at which inhibition is half-maximal. For `O=S(=O)(NCc1ccc2c(c1)OCO2)c1ccc(Cc2ccc(S(=O)(=O)NCc3ccc4c(c3)OCO4)cc2)cc1` [M1i-124], the IC50 is 2.3 µM on HRH2 and 1.2 µM at CHRM2.

As for `COc1ccc(CNS(=O)(=O)c2ccc(Cc3ccc(S(=O)(=O)NCc4ccc(OC)cc4)cc3)cc2)cc1` [M1i-124d1], the “Transcription of interleukin 2 (IL-2)” value in experiment [1] is listed as “inhibit”. Further, the Proliferation result in the experiment on OCI-Ly3 ABC-DLBCL cells is on record as “inhibit the proliferation”. In addition, in experiment [2], the “Phosphorylation of ERK (phospho-ERK/total ERK)” value is given as “Neither M1i-124 (F) or M1i-124d1 (G) inhibits”. In addition, the Proliferation entry with TMD8 ABC-DLBCL cells is recorded as “inhibit the proliferation”. For the same compound, in experiment [3], the IL-6 secretion entry was “inhibit IL-6 and IL-10 secretion in a concentration-dependent manner”; the IL-10 secretion result was “inhibit IL-6 and IL-10 secretion in a concentration-dependent manner”.
